The series concerns THP-1 cell line. The experiment in a line: Cytotoxicity assays (CytoTox-Glo, CytoTox 96). The class given is cell-based. Particulars: THP-1 cells, overnight, CytoTox-Glo and CytoTox 96.

Entries after “also recorded” stand apart in the source; their conditions may differ.

In the case of `COc1ccc(OCc2nnc3n2N=C(c2ccc(OC)c(OC)c2)CS3)cc1` [Z55660043, 6-(3,4-dimethoxyphenyl)-3-[(4-methoxy-phenoxy)methyl]-5H-[1,2,4]triazolo[3,4-b][1,3,4]thiadiazine], the cytotoxicity result is “without measurable cytotoxicity; also recorded: no overt cytotoxicity”.
